Reference: patent US8822444B2, “Hepatitis C virus inhibitors” (Bristol-Myers Squibb Company, priority 2009, dated 2014)

tested on: HCV 1b genotype; assay: HCV Replicon assay; format: cell-based; conditions: HCV 1b genotype replicon; read-out: 1b EC50 Range
Protocol: An HCV Replicon assay was utilized in the present disclosure, and was prepared, conducted and validated as described in commonly owned PCT/US2006/022197 and in O'Boyle et. al. Antimicrob Agents Chemother. 2005 April; 49(4):1346-53. Assay methods incorporating luciferase reporters have also been used as described (Apath.com).
HCV-neo replicon cells and replicon cells containing mutations in the NS5A region were used to test the currently described family of compounds. The compounds were determined to have more than 10-fold less inhibitory activity on cells containing mutations than wild-type cells. Thus, the compounds of the present disclosure can be effective in inhibiting the function of the HCV NS5A protein and are understood to be as effective in combinations as previously described in application PCT/US2006/022197 and commonly owned WO/04014852. Further, the compounds of the present disclosure can be effective against the HCV 1b genotype. It should also be understood that the compounds of the present disclosure can inhibit multiple genotypes of HCV. […] In one embodiment, compounds of the present disclosure are inhibitory versus 1a, 1b, 2a, 2b, 3a, 4a, and 5a genotypes.

For `COC(=O)N[C@H](C(=O)N1CCC[C@H]1c1nc(C2=CCC(C3CC=C(c4c[nH]c([C@@H]5CCCN5C(=O)[C@@H](NC(=O)OC)[C@@H](C)OC)n4)CC3)CC2)c[nH]1)[C@@H](C)OC` (stereo partly drawn) [QC-5, methyl ((1S,2R)-2-methoxy-1-(((2S)-2-(4-(4′-(2-((2S)-1-(N-(methoxycarbonyl)-O-methyl-L-threonyl)-2-pyrrolidinyl)-1H-imidazol-4-yl)-1,1′-bi(3-cyclohexen-1-yl)-4-yl)-1H-imidazol-2-yl)-1-pyrrolidinyl)carbonyl)propyl)carbamate], which EC50 is on record?
Its EC50 is 2 to 4.57 nM.

`COC(=O)N[C@@H](C)C(=O)N1CCC[C@H]1c1nc(C2=CCC(c3ccc(-c4c[nH]c([C@@H]5CCCN5C(=O)[C@H](C)NC(=O)OC)n4)cc3)CC2)c[nH]1` (stereo partly drawn) [QC-10, methyl ((1S)-2-((2S)-2-(4-(4-(4-(2-((2S)-1-(N-(methoxycarbonyl)-1-alanyl)-2-pyrrolidinyl)-1H-imidazol-4-yl)-3-cyclohexen-1-yl)phenyl)-1H-imidazol-2-yl)-1-pyrrolidinyl)-1-methyl-2-oxoethyl)carbamate] was tested. Which EC50 did it give?
The EC50 was 4.57 to 99 nM.

How did the EC50 turn out when `COC(=O)N[C@H](C(=O)N1CCC[C@H]1c1nc(-c2ccc(C3CCC(c4c[nH]c([C@@H]5CCCN5C(=O)[C@@H](NC(=O)OC)C(C)C)n4)CC3)cc2)c[nH]1)C(C)C` (stereo partly drawn) [QC-17, methyl ((1S)-1-(((2S)-2-(4-(4-(4-(2-((2S)-1-((2S)-2-((methoxycarbonyl)amino)-3-methylbutanoyl)pyrrolidin-2-yl)-1H-imidazol-4-yl)phenyl)cyclohexyl)-1H-imidazol-2-yl)pyrrolidin-1-yl)carbonyl)-2-methylpropyl)carbamate] was run?
The EC50 was 2 to 4.57 nM.

same assay, conditions: Hepatitis C virus; HCV 1b genotype replicon; read-out: 1b EC50 (in nM or range)

For `COC[C@H](NC(=O)OC)C(=O)N1CCC[C@H]1c1nc(C2CCC(C3CCC(c4c[nH]c([C@@H]5CCCN5C(=O)[C@H](COC)NC(=O)OC)n4)CC3)CC2)c[nH]1` (stereo partly drawn) [QC-7, methyl ((1S)-2-((2S)-2-(4-(4′-(2-((2S)-1-(N-(methoxycarbonyl)-O-methyl-L-seryl)-2-pyrrolidinyl)-1H-imidazol-4-yl)-1,1′-bi(cyclohexyl)-4-yl)-1H-imidazol-2-yl)-1-pyrrolidinyl)-1-(methoxymethyl)-2-oxoethyl)carbamate], which EC50 is on record?
The EC50 was 17.1 nM.

With `COC(=O)N[C@H](C(=O)N1CCC[C@H]1c1nc(C2CCC(C3CCC(c4c[nH]c([C@@H]5CCCN5C(=O)[C@@H](NC(=O)OC)[C@@H](C)OC)n4)CC3)CC2)c[nH]1)[C@@H](C)OC` (stereo partly drawn) [QC-8, methyl ((1S,2R)-2-methoxy-1-(((2S)-2-(4-(4′-(2-((2S)-1-(N-(methoxycarbonyl)-O-methyl-L-threonyl)-2-pyrrolidinyl)-1H-imidazol-4-yl)-1,1′-bi(cyclohexyl)-4-yl)-1H-imidazol-2-yl)-1-pyrrolidinyl)carbonyl)propyl)carbamate] as the molecule, how does the EC50 read?
The EC50 was 2.4 nM.

same assay, conditions: Hepatitis C virus; HCV 1b genotype replicon; read-out: 1b EC50 Range

For `COC(=O)N[C@@H](C)C(=O)N1CCC[C@H]1c1nc(C2CCC(C3CCC(c4c[nH]c([C@@H]5CCCN5C(=O)[C@H](C)NC(=O)OC)n4)CC3)CC2)c[nH]1` (stereo partly drawn) [QC-6, methyl ((1S)-2-((2S)-2-(4-(4′-(2-((2S)-1-(N-(methoxycarbonyl)-L-alanyl)-2-pyrrolidinyl)-1H-imidazol-4-yl)-1,1′-bi(cyclohexyl)-4-yl)-1H-imidazol-2-yl)-1-pyrrolidinyl)-1-methyl-2-oxoethyl)carbamate], which EC50 is on record?
Its EC50 is 100 to 999 nM.

With `COC[C@H](NC(=O)OC)C(=O)N1CCC[C@H]1c1nc(C2CCC(C3CCC(c4c[nH]c([C@@H]5CCCN5C(=O)[C@H](COC)NC(=O)OC)n4)CC3)CC2)c[nH]1` (stereo partly drawn) [QC-7, methyl ((1S)-2-((2S)-2-(4-(4′-(2-((2S)-1-(N-(methoxycarbonyl)-O-methyl-L-seryl)-2-pyrrolidinyl)-1H-imidazol-4-yl)-1,1′-bi(cyclohexyl)-4-yl)-1H-imidazol-2-yl)-1-pyrrolidinyl)-1-(methoxymethyl)-2-oxoethyl)carbamate] as the molecule, how does the EC50 read?
Its EC50 is 1000 to 10000 nM.

With `COC(=O)N[C@H](C(=O)N1CCC[C@H]1c1nc(C2CCC(C3CCC(c4c[nH]c([C@@H]5CCCN5C(=O)[C@@H](NC(=O)OC)[C@@H](C)OC)n4)CC3)CC2)c[nH]1)[C@@H](C)OC` (stereo partly drawn) [QC-8, methyl ((1S,2R)-2-methoxy-1-(((2S)-2-(4-(4′-(2-((2S)-1-(N-(methoxycarbonyl)-O-methyl-L-threonyl)-2-pyrrolidinyl)-1H-imidazol-4-yl)-1,1′-bi(cyclohexyl)-4-yl)-1H-imidazol-2-yl)-1-pyrrolidinyl)carbonyl)propyl)carbamate] as the molecule, how does the EC50 read?
The EC50 was 100 to 999 nM.

Which EC50 does the source give for `COC[C@H](NC(=O)OC)C(=O)N1CCC[C@H]1c1nc(C2=CCC(c3ccc(-c4c[nH]c([C@@H]5CCCN5C(=O)[C@H](COC)NC(=O)OC)n4)cc3)CC2)c[nH]1` (stereo partly drawn) [QC-11, methyl ((1S)-2-((2S)-2-(4-(4-(4-(2-((2S)-1-(N-(methoxycarbonyl)-O-methyl-L-seryl)-2-pyrrolidinyl)-1H-imidazol-4-yl)-3-cyclohexen-1-yl)phenyl)-1H-imidazol-2-yl)-1-pyrrolidinyl)-1-(methoxymethyl)-2-oxoethyl)carbamate] here?
Its EC50 is 4.57 to 99 nM.

With `COC(=O)N[C@H](C(=O)N1CCC[C@H]1c1nc(C2=CCC(c3ccc(-c4c[nH]c([C@@H]5CCCN5C(=O)[C@@H](NC(=O)OC)[C@@H](C)OC)n4)cc3)CC2)c[nH]1)[C@@H](C)OC` (stereo partly drawn) [QC-12, methyl ((1S,2R)-2-methoxy-1-(((2S)-2-(4-(4-(4-(2-((2S)-1-(N-(methoxycarbonyl)-O-methyl-L-threonyl)-2-pyrrolidinyl)-1H-imidazol-4-yl)-3-cyclohexen-1-yl)phenyl)-1H-imidazol-2-yl)-1-pyrrolidinyl)carbonyl)propyl)carbamate] as the molecule, how does the EC50 read?
The EC50 was 4.57 to 99 nM.

For `COC(=O)N[C@H](C(=O)N1CCC[C@H]1c1nc(-c2ccc(N3CCC(c4c[nH]c([C@@H]5CCCN5C(=O)[C@@H](NC(=O)OC)C(C)C)n4)CC3)cc2)c[nH]1)C(C)C` [QC-13, methyl ((1S)-1-(((2S)-2-(4-(1-(4-(2-((2S)-1-((2S)-2-((methoxycarbonyl)amino)-3-methylbutanoyl)-2-pyrrolidinyl)-1H-imidazol-4-yl)phenyl)-4-piperidinyl)-1H-imidazol-2-yl)-1-pyrrolidinyl)carbonyl)-2-methylpropyl)carbamate], which EC50 is on record?
Its EC50 is 4.57 to 99 nM.

`COC[C@H](NC(=O)OC)C(=O)N1CCC[C@H]1c1nc(-c2ccc(N3CCC(c4c[nH]c([C@@H]5CCCN5C(=O)[C@H](COC)NC(=O)OC)n4)CC3)cc2)c[nH]1` [QC-14, methyl ((1S)-2-((2S)-2-(4-(4-(4-(2-((2S)-1-(N-(methoxycarbonyl)-O-methyl-L-seryl)-2-pyrrolidinyl)-1H-imidazol-4-yl)-1-piperidinyl)phenyl)-1H-imidazol-2-yl)-1-pyrrolidinyl)-1-(methoxymethyl)-2-oxoethyl)carbamate] was tested. Which EC50 did it give?
The EC50 was 100 to 999 nM.

With `COC(=O)N[C@H](C(=O)N1CCC[C@H]1c1nc(-c2ccc(N3CCC(c4c[nH]c([C@@H]5CCCN5C(=O)[C@@H](NC(=O)OC)C(C)(C)C)n4)CC3)cc2)c[nH]1)C(C)(C)C` [QC-15, methyl ((1S)-1-(((2S)-2-(4-(1-(4-(2-((2S)-1-((2S)-2-((methoxycarbonyl)amino)-3,3-dimethylbutanoyl)-2-pyrrolidinyl)-1H-imidazol-4-yl)phenyl)-4-piperidinyl)-1H-imidazol-2-yl)-1-pyrrolidinyl)carbonyl)-2,2-dimethylpropyl)carbamate] as the molecule, how does the EC50 read?
The EC50 was 4.57 to 99 nM.
